Measurements published in US11739098B2 (BRISTOL-MYERS SQUIBB COMPANY, priority 2017, dated 2023).

Columns and labels:
Type in all cases: cell-based
human TLR7 = target: T1, human TLR7 (Homo sapiens, UniProt Q9NYK1); assay: TLR7 inhibition reporter assay (HEK-Blue cells, SEAP reporter, gardiquimod stimulation); settings: HEK-Blue cells overexpressing human TLR7, SEAP reporter, gardiquimod 7.5 μM
T1 construct: host or cells: HEK-Blue cells (HEK293-derived reporter line)
T1 sequence (Q9NYK1 27-1049): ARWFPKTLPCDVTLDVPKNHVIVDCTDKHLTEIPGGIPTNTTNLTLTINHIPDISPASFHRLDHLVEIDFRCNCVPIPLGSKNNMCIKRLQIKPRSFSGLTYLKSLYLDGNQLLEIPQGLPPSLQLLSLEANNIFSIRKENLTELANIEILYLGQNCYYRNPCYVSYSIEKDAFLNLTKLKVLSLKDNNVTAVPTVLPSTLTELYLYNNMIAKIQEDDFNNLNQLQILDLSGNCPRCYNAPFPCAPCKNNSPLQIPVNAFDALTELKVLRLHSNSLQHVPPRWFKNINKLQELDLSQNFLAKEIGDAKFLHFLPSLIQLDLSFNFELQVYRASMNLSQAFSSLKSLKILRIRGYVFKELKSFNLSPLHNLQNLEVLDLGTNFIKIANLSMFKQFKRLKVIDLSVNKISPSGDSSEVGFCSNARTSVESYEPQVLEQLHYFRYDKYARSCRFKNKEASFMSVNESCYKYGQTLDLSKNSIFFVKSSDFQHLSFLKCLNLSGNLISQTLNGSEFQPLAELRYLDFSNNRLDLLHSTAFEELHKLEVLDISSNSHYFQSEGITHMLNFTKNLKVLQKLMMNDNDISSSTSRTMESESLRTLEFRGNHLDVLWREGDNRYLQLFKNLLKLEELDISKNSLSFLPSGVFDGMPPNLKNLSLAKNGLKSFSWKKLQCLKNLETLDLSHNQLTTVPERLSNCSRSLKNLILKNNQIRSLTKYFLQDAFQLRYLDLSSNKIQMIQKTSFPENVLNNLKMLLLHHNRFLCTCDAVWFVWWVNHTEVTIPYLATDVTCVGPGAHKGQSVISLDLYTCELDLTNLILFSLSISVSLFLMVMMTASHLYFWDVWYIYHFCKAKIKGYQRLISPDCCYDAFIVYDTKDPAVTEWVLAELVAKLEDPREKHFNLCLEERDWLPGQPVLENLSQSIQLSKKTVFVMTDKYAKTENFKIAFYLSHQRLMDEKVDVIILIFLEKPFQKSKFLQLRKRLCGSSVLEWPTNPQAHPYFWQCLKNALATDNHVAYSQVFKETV
Outline: (§1)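 HEK-Blue cells overexpressing human TLR7, TLR8 or TLR9 (NF-κB/AP-1-driven SEAP) pre-treated 30 min at room temperature with compound (0.05 nM–50 μM), then stimulated with gardiquimod 7.5 μM (TLR7), R848 15.9 μM (TLR8) or ODN2006 5 nM (TLR9). SEAP read colorimetrically after 22 h at 37 °C; % inhibition calculated.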

human TLR8 = target: T2, human TLR8 (Homo sapiens, UniProt Q9NR97); assay: TLR8 inhibition reporter assay (HEK-Blue cells, SEAP reporter, R848 stimulation); settings: HEK-Blue cells overexpressing human TLR8, SEAP reporter, R848 15.9 μM
T2 construct: host or cells: HEK-Blue cells (HEK293-derived reporter line)
T2 sequence (Q9NR97 27-1041): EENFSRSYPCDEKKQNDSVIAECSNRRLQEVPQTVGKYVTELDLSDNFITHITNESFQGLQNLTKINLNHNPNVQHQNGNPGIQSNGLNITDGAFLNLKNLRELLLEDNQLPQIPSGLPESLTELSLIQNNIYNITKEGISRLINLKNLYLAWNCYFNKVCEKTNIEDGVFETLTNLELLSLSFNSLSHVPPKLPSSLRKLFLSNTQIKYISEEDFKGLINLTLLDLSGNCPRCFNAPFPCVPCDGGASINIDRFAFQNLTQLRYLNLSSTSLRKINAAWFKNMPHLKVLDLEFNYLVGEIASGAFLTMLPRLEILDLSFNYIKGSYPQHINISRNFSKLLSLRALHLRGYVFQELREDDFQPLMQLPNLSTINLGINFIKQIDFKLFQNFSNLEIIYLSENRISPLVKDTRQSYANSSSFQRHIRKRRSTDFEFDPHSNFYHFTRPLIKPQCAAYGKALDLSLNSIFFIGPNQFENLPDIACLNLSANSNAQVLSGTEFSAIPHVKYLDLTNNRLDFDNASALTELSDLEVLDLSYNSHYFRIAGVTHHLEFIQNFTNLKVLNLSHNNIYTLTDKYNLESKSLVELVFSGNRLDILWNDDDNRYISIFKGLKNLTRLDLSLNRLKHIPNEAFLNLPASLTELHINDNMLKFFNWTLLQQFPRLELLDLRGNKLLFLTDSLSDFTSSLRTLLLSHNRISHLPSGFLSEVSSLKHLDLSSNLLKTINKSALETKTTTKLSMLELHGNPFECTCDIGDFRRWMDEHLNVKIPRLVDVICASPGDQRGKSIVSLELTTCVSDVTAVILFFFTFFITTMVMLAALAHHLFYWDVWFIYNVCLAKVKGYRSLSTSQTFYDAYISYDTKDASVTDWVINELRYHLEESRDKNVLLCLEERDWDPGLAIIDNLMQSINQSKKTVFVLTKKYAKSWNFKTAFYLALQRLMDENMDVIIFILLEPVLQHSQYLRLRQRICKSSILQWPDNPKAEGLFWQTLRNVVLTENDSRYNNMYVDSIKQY
Outline: as §1

human TLR9 = target: T3, human TLR9 (Homo sapiens, UniProt Q9NR96); assay: TLR9 inhibition reporter assay (HEK-Blue cells, SEAP reporter, ODN2006 stimulation); settings: HEK-Blue cells overexpressing human TLR9, SEAP reporter, ODN2006 5 nM
T3 construct: host or cells: HEK-Blue cells (HEK293-derived reporter line)
T3 sequence (Q9NR96 26-1032): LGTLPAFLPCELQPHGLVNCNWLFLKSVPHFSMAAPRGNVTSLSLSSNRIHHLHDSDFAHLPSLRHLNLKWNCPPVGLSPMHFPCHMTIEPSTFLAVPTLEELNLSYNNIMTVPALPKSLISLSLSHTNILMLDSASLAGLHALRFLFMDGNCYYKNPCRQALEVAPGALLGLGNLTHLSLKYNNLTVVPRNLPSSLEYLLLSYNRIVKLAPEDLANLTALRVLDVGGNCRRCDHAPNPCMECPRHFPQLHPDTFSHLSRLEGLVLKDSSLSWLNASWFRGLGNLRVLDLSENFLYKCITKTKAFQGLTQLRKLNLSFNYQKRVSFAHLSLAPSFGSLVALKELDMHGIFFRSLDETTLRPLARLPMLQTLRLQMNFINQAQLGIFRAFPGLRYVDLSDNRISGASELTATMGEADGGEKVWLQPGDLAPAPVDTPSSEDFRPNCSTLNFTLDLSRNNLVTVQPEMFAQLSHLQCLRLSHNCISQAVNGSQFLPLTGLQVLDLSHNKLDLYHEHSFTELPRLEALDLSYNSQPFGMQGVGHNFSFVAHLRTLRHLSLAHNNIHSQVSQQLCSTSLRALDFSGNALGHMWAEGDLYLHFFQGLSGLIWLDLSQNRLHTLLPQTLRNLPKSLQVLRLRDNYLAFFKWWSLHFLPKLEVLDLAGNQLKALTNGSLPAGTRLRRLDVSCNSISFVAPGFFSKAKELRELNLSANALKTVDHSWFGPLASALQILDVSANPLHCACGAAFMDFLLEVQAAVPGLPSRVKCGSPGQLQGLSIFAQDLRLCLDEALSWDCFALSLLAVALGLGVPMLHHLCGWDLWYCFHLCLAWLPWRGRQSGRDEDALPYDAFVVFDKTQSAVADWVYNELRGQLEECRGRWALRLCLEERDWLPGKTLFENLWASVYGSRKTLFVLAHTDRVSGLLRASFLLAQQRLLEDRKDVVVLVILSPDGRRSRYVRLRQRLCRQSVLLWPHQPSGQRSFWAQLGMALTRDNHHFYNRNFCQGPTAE
Outline: as §1

IC50 (human TLR7) [nM]	IC50 (human TLR8) [nM]	IC50 (human TLR9) [nM]	SMILES
< 100	< 100	100 to 1000	CNCCN1CCC(c2ccc3[nH]c(-c4ccnc5[nH]ncc45)c(C(C)C)c3c2)C(F)C1 (stereo not drawn) [Example 675, 2-(3-fluoro-4-(3-isopropyl-2-(1H-pyrazolo[3,4-b]pyridin-4-yl)-1H-indol-5-yl)piperidin-1-yl)-N-methylethan-1-amine]
< 100	100 to 1000	1000 to 50000	CC(C)c1c(-c2ccn3nnnc3c2)[nH]c2ccc(C3CCNCC3)cc12 [Example 82, 7-(3-isopropyl-5-(piperidin-4-yl)-1H-indol-2-yl)tetrazolo[1,5-a]pyridine]
< 100	< 100	1000 to 50000	CC(C)c1c(-c2ccnc3[nH]ncc23)[nH]c2ccc(C3CCN(Cc4ncn(C)n4)CC3)cc12 [Example 865, 4-(3-isopropyl-5-(1-((1-methyl-1H-1,2,4-triazol-3-yl)methyl)piperidin-4-yl)-1H-indol-2-yl)-1H-pyrazolo[3,4-b]pyridine]
< 100	100 to 1000	100 to 1000	Cc1cn2cc(-c3[nH]c4ccc(C5CCN(C(C)C)CC5)cc4c3C(C)C)cc(C(F)(F)F)c2n1 [Example 943, 6-(3-isopropyl-5-(1-isopropylpiperidin-4-yl)-1H-indol-2-yl)-2-methyl-8-(trifluoromethyl)imidazo[1,2-a]pyridine]
< 100	100 to 1000	100 to 1000	Cc1cn2cc(-c3[nH]c4ccc(C5CCNCC5)cc4c3C(C)C)cc(F)c2n1 [Example 126, 8-fluoro-6-(3-isopropyl-5-(piperidin-4-yl)-1H-indol-2-yl)-2-methylimidazo[1,2-a]pyridine]
< 100	< 100	1000 to 50000	CC(C)c1c(-c2cn(C)c3ncncc23)[nH]c2ccc(C3CCN(C4CCOCC4)CC3)cc12 [Example 688, 5-(3-isopropyl-5-(1-(tetrahydro-2H-pyran-4-yl)piperidin-4-yl)-1H-indol-2-yl)-7-methyl-7H-pyrrolo[2,3-d]pyrimidine]
100 to 1000	100 to 1000	100 to 1000	CNC(=O)CN1CCC(c2ccc3[nH]c(-c4cc(OC)n5ccnc5c4)c(C(C)C)c3c2)CC1 [Example 356, 2-(4-(3-isopropyl-2-(5-methoxyimidazo[1,2-a]pyridin-7-yl)-1H-indol-5-yl)piperidin-1-yl)-N-methylacetamide]
< 100	< 100	1000 to 50000	Cc1c(-c2[nH]c3ccc(C4CCN(CC(=O)N(C)C)CC4)cc3c2C(C)C)ccc2c1cnn2C [Example 382, 2-(4-(2-(1,4-dimethyl-1H-indazol-5-yl)-3-isopropyl-1H-indol-5-yl)piperidin-1-yl)-N,N-dimethylacetamide]
100 to 1000	> 3130	1000 to 50000	Cc1cn2cc(-c3[nH]c4ccc(C5CCN(C(=O)C[C@@H](C)O)CC5)cc4c3CC(F)F)ccc2n1 [Example 609, (R)-1-(4-(3-(2,2-difluoroethyl)-2-(2-methylimidazo[1,2-a]pyridin-6-yl)-1H-indol-5-yl)piperidin-1-yl)-3-hydroxybutan-1-one]
< 100	< 100	100 to 1000	Cc1cc2[nH]c(-c3ccnc4[nH]ncc34)c(C(C)C)c2cc1C1CCNCC1 [Example 250, 4-(3-isopropyl-6-methyl-5-(piperidin-4-yl)-1H-indol-2-yl)-1H-pyrazolo[3,4-b]pyridine]
< 100	< 100	100 to 1000	CC(C)c1c(-c2ccnc3[nH]ncc23)[nH]c2ccc(C3CCN(C4CCNCC4F)CC3)cc12 (stereo not drawn) [Example 827, 4-(5-(3′-fluoro-[1,4′-bipiperidin]-4-yl)-3-isopropyl-1H-indol-2-yl)-1H-pyrazolo[3,4-b]pyridine]
1000 to 50000	1000 to 50000	100 to 1000	CCc1c(-c2ccnc3[nH]ccc23)[nH]c2cc(C)c(C3CCN(C4CCN(C(C)C)CC4)CC3)cc12 [Example 840, 4-(3-ethyl-5-(1′-isopropyl-[1,4′-bipiperidin]-4-yl)-6-methyl-1H-indol-2-yl)-1H-pyrrolo[2,3-b]pyridine]
< 100	< 100	1000 to 50000	Cc1cc(-c2[nH]c3ccc(C4CCN(C(=O)C[C@@H](C)O)CC4)cc3c2C(C)C)cn2nnnc12 [Example 594, (R)-3-hydroxy-1-(4-(3-isopropyl-2-(8-methyltetrazolo[1,5-a]pyridin-6-yl)-1H-indol-5-yl)piperidin-1-yl)butan-1-one]
100 to 1000	100 to 1000	1000 to 50000	CC(C)c1c(-c2cccn3ncnc23)[nH]c2ccc(C3CCN(CC(=O)N(C)C)CC3)cc12 [Example 362, 2-(4-(2-5 ([1,2,4]triazolo[1,5-a]pyridin-8-yl)-3-isopropyl-1H-indol-5-yl)piperidin-1-yl)-N,N-dimethylacetamide]
